From patent US6613889B2, “Method for preparing salts of polyene macrolide esters” (BioSource Pharm, Inc., priority 2001, dated 2003)

Assays:
[1] = pH of a 1% solution; type: physicochemical
Protocol: A mixture of amphotericin B methyl ester and its p-chlorobenzilidine derivative (1.029 g) was dissolved in 40 ml o THF/H2O (4/1) and 0.90 ml of 1.0 M acetic acid solution was added dropwise. Water (40 ml) was added and THF was removed as an azeotrope at reduced pressure and 40° C. The resulting aqueous solution was passed through a column of Amberlite® XAD-2, then freeze-dried to afford 0.654 g of the acetate salt: E^1%1 cm=1100 at 382 nm in MeOH; a 1% solution had pH 5.30.

[2] = at pH levels less than 4.0; cited from earlier work
[3] = solubility in water; type: physicochemical; details: freeze-dried yellow powder
Description: In order to facilitate removal of the aldehyde protective group of the Schiff base and to form the salt of the liberated free base ester, the Schiff base is stirred in water overnight, centrifuged and the insoluble product dried by lyophilization. HPLC and 300 Mhz NMR indicate that the product contains some p-chlorobenzaldehyde and is usually about a 50/50 mixture of the desired methyl ester and the corresponding Schiff base. The mixture is stirred in ethyl acetate to remove the excess aldehyde. The product is then dissolved in a solvent which is inert to the materials, is miscible with water, and can be removed from an aqueous solution as an azeotrope. Tetrahydrofuran or acetonitrile fulfil these requirements. […] A solution of amphotericin B methyl ester Schiff base/free base in tetrahydrofuran is diluted with water to approximately 75% THF but maintained in solution. To this solution is added dilute hydrochloric acid until the appropriate pH is reached. This causes the hydrolysis of the Schiff base and forms the hydochloride salt of amphotericin B methyl ester. The tetrahydrofuran is then removed as an azeotrope with water to obtain an aqueous solution of the AME.HCl and some insoluble material containing part of the aldehyde. The residual aldehyde in the aqueous solution of the AME.HCl is an impurity which can not be readily removed by filtration, centrifuging, or solvent extraction. […]

CC(=O)O.COC(=O)C1C(O)CC2(O)CC(O)CC(O)C(O)CCC(O)CC(O)CC(=O)OC(C)C(C)C(O)C(C)C=CC=CC=CC=CC=CC=CC=CC(OC3OC(C)C(O)C(N)C3O)CC1O2 (stereo not drawn) [Amphotericin B Methyl Ester Acetate]
pH of solution [1]: 5.30

COC(=O)[C@H]1[C@@H]2C[C@@H](O[C@@H]3O[C@H](C)[C@@H](O)[C@H](N)[C@@H]3O)/C=C/C=C/C=C/C=C/C=C/C=C/C=C/[C@H](C)[C@@H](O)[C@@H](C)[C@H](C)OC(=O)C[C@H](O)C[C@H](O)CC[C@@H](O)[C@H](O)C[C@H](O)C[C@](O)(C[C@@H]1O)O2 [AME, amphotericin B methyl ester]
stability [2]: very unstable

COC(=O)[C@H]1[C@@H]2C[C@@H](O[C@@H]3O[C@H](C)[C@@H](O)[C@H](N)[C@@H]3O)/C=C/C=C/C=C/C=C/C=C/C=C/C=C/[C@H](C)[C@@H](O)[C@@H](C)[C@H](C)OC(=O)C[C@H](O)C[C@H](O)CC[C@@H](O)[C@H](O)C[C@H](O)C[C@](O)(C[C@@H]1O)O2.Cl [AME.HCl, amphotericin B methyl ester hydrochloride]
solubility in water [3]: highly soluble
